{"source": "patent US9334259B2", "about": "“Aryloxyacetamide compound and pesticide” (Nippon Soda Co., Ltd., priority 2012, dated 2016)", "test_system": "acaricide-resistant adult female Aculops pelekassi", "experiment": "Efficacy test against Aculops pelekassi (mandarin orange leaf)", "assay_type": "in vivo", "details": "125 ppm emulsion sprayed", "method": "Twenty acaricide-resistant adult female Aculops pelekassi acarus were inoculated onto a mandarin orange leaf placed in a Petri dish. Next, an emulsion was prepared having the formula indicated in the aforementioned Preparation example 2. This emulsion was diluted with water to a compound concentration of 125 ppm after which the diluted liquids were sprayed onto the mandarin orange leaf with a rotary spraying tower. The mandarin orange leaf was then placed in a temperature-controlled room at a temperature of 25° C. and a humidity of 65%. The life and death of the adult insects were investigated 3 days after the spraying. The development from eggs laid to adult was investigated 10 days after the spraying.", "data": [{"molecule": "CCC(Oc1cc(Br)c(Cl)c(Br)c1)C(=O)NC(C)(C)c1ncccn1", "note": "(centres unmarked) [Compound No. 1-14]", "values": [{"measurement": "insect mortality rate after 3 days", "setting": "3 days after spraying", "result": "≥ 90", "unit": "%"}, {"measurement": "insect mortality rate after 10 days", "setting": "10 days after spraying", "result": "≥ 90", "unit": "%"}]}]}
